pIC50: −log10 of the molar value. The source made the active and inactive calls. The calls are words filed in the database; no cut-off is given here.
How the values were obtained:
HeLa [1] = experiment: Inhibition of colony formation in human HeLa cells treated at 9 uM for 24 hrs measured by paraformaldehyde based crystal violet staining analysis; type: functional, cell-based
[2] = Toxicity in immunocompetent C57BL/6J mouse allografted with B16-F10 cells assessed as tissue damage in thymus administered at 30 mg/kg, ip daily for 14 days by hematoxylin and eosin staining analysis; type: organism-based; conditions: in vivo, 336 h, time 14 day
MDA-MB-231 = experiment: Cytotoxicity against human MDA-MB-231 cells incubated for 72 hrs by MTT assay; type: functional, cell-based; conditions: MDA-MB-231, 72 h
HeLa [3] = experiment: Upregulation of p53 expression in human HeLa cells measured at 4 to 10 uM for 24 hrs by Western blotting analysis; type: functional, cell-based; conditions: dose 4-10 µM
[4] = Toxicity in immunocompetent C57BL/6J mouse allografted with B16-F10 cells assessed as change of organ index in spleen administered at 30 mg/kg, ip daily for 14 days by hematoxylin and eosin staining analysis; type: organism-based; conditions: in vivo, 336 h, time 14 day
A549 = experiment: Cytotoxicity against human A549 cells incubated for 72 hrs by MTT assay; type: functional, cell-based; conditions: A549, 72 h
HeLa [5] = experiment: Induction of apoptosis in human HeLa cells assessed as early apoptotic cells incubated at 6 uM for 24 hrs measured by annexin V-PI staining based FITC analysis (reference value: 3.59%); type: functional
MCF7 = experiment: Cytotoxicity against human MCF7 cells incubated for 72 hrs by MTT assay; type: functional, cell-based; conditions: MCF7, 72 h
NCI-H1355 = experiment: Cytotoxicity against human NCI-H1355 cells incubated for 72 hrs by MTT assay; type: functional, cell-based; conditions: NCI-H1355, 72 h
HeLa [6] = experiment: Induction of apoptosis in human HeLa cells assessed as viable cells incubated at 10 uM for 24 hrs measured by annexin V-PI staining based FITC analysis (reference value: 93.9%); type: functional; conditions: read-out: Activity
SH-SY5Y = experiment: Cytotoxicity against human SH-SY5Y cells incubated for 72 hrs by MTT assay; type: functional, cell-based
HeLa [7] = experiment: Induction of apoptosis in human HeLa cells assessed as viable cells incubated at 6 uM for 24 hrs measured by annexin V-PI staining based FITC analysis (reference value: 93.9%); type: functional; conditions: read-out: Activity
HeLa [8] = experiment: Induction of apoptosis in human HeLa cells assessed as increase in cleaved PARP expression level at 10 uM by immunoblotting analysis; type: functional, cell-based
HeLa [9] = experiment: Cytotoxicity against human HeLa cells incubated for 72 hrs by MTT assay; type: functional, cell-based
HeLa [10] = experiment: Induction of apoptosis in human HeLa cells assessed as viable cells incubated at 8 uM for 24 hrs measured by annexin V-PI staining based FITC analysis (reference value: 93.9%); type: functional; conditions: read-out: Activity
SMMC-7721 = experiment: Cytotoxicity against human SMMC-7721 cells incubated for 72 hrs by MTT assay; type: functional, cell-based; conditions: SMMC-7721, 72 h
HepG2 = experiment: Cytotoxicity against human HepG2 cells incubated for 72 hrs by MTT assay; type: functional, cell-based; conditions: HepG2, 72 h
HeLa [11] = experiment: Induction of apoptosis in human HeLa cells assessed as necrotic cells preincubated with PFTalpha followed by compound addition at 10 uM for 24 hrs measured by annexin V-PI staining based FITC analysis (reference value: 0.79%); type: functional
HeLa [12] = experiment: Effect on lipid peroxidation in human HeLa cells measured at 10 to 12 uM for 4 hrs by C11-BODIPY581/591 staining based flow cytometric analysis relative to control; type: functional; conditions: dose 10-12 µM
HeLa [13] = experiment: Cytotoxicity against human HeLa cells assessed as increase in cell viability pretreated with NAC for 1 hr followed by compound addition at 2.5 to 20 uM for 24 hrs relative to control; type: functional; conditions: dose 2.5-20 µM
HeLa [14] = experiment: Cytotoxicity against human HeLa cells assessed as increase in cell viability pretreated with Ferrostatin-1 for 4 hrs followed by compound addition at 10 uM for 24 hrs; type: functional, cell-based
SK-OV-3 = experiment: Cytotoxicity against human SK-OV-3 cells incubated for 72 hrs by MTT assay; type: functional, cell-based; conditions: SK-OV-3, 72 h
L02 = experiment: Cytotoxicity against human L02 cells incubated for 72 hrs by MTT assay; type: functional, cell-based; conditions: L02, 72 h
NCI-H1155 = experiment: Cytotoxicity against human NCI-H1155 cells incubated for 72 hrs by MTT assay; type: functional, cell-based; conditions: NCI-H1155, 72 h
HeLa [15] = experiment: Induction of ROS generation in human HeLa cells assessed as increase in ROS level at 20 uM incubated for 0.5 hrs (reference value: 39.6%); type: functional
HeLa [16] = experiment: Induction of apoptosis in human HeLa cells assessed as early apoptotic cells incubated at 10 uM for 24 hrs measured by annexin V-PI staining based FITC analysis (reference value: 3.59%); type: functional
HeLa [17] = experiment: Induction of ferroptosis in human HeLa cells assessed as decrease in cellular GSH level measured at 4 uM for 24 hrs by transmission electron microscopic analysis; type: functional, cell-based
HeLa [18] = experiment: Cytotoxicity against human HeLa cells assessed as increase in cell viability pretreated with DFO for 4 hrs followed by compound addition at 10 uM for 24 hrs; type: functional, cell-based
HeLa [19] = experiment: Inhibition of colony formation in human HeLa cells treated upto 6 uM for 24 hrs measured by paraformaldehyde based crystal violet staining analysis; type: functional, cell-based
HeLa [20] = experiment: Upregulation of p21 expression in human HeLa cells measured at 4 to 10 uM for 24 hrs by Western blotting analysis; type: functional, cell-based; conditions: dose 4-10 µM
HeLa [21] = experiment: Induction of ROS generation in human HeLa cells assessed as increase in ROS level; type: functional, cell-based; conditions: dose 4-10 µM
HeLa [22] = experiment: Induction of apoptosis in human HeLa cells assessed as apoptotic cells incubated at 10 uM for 24 hrs measured by annexin V-PI staining based FITC analysis (Rvb ~ 5%); type: functional
HeLa [23] = experiment: Induction of apoptosis in human HeLa cells assessed as viable cells incubated at 4 uM for 24 hrs measured by annexin V-PI staining based FITC analysis (reference value: 93.9%); type: functional; conditions: read-out: Activity
HeLa [24] = experiment: Inhibition of colony migration in human HeLa cells treated for 24 hrs measured by paraformaldehyde based crystal violet staining analysis; type: functional, cell-based; conditions: dose 0.625-10 µM
HeLa [25] = experiment: Inhibition of colony formation in human HeLa cells treated for 24 hrs measured by paraformaldehyde based crystal violet staining analysis; type: functional, cell-based; conditions: dose 5-9 µM
HeLa [26] = experiment: Induction of apoptosis in human HeLa cells assessed as late apoptotic cells incubated at 10 uM for 24 hrs measured by annexin V-PI staining based FITC analysis (reference value: 1.54%); type: functional
HeLa [27] = experiment: Induction of apoptosis in human HeLa cells assessed as necrotic cells incubated at 10 uM for 24 hrs measured by annexin V-PI staining based FITC analysis (reference value: 0.58%); type: functional
HeLa [28] = experiment: Induction of apoptosis in human HeLa cells assessed as late apoptotic cells incubated at 8 uM for 24 hrs measured by annexin V-PI staining based FITC analysis (reference value: 1.54%); type: functional
HeLa [29] = experiment: Induction of apoptosis in human HeLa cells assessed as late apoptotic cells preincubated with PFTalpha followed by compound addition at 10 uM for 24 hrs measured by annexin V-PI staining based FITC analysis (reference value: 3.45%); type: functional
HeLa [30] = experiment: Induction of apoptosis in human HeLa cells assessed as late apoptotic cells incubated at 6 uM for 24 hrs measured by annexin V-PI staining based FITC analysis (reference value: 1.54%); type: functional

SMILES	inhibition (HeLa [1])	pIC50 (MDA-MB-231)	Activity (HeLa [3])	pIC50 (A549)	pIC50 (MCF7)	pIC50 (NCI-H1355)	viability at 10 µM (HeLa [6])	pIC50 (SH-SY5Y)	viability at 6 µM (HeLa [7])	Activity (HeLa [8])	pIC50 (HeLa [9])	viability at 8 µM (HeLa [10])	pIC50 (SMMC-7721)	pIC50 (HepG2)	Activity (HeLa [12])	Activity (HeLa [13])	Activity (HeLa [14])	pIC50 (SK-OV-3)	pIC50 (L02)	pIC50 (NCI-H1155)	further results
CCC/C=C/C=C/C(=O)O[C@@H]1C[C@H]2[C@@H](CCCC[C@H](O)CCC)CCC[C@H]2N[C@H]1C	Active	5.07	Active	5.33	5.30	5.03	26.1%	5.24	88.4%	Active	5.60	76.1%	5.39	5.21	10%	5%	Not toxic	5.10	4.90	5.15	Activity [2]: Non-Toxic; Activity [4]: Non-Toxic; Activity (HeLa [5]): 6.71%; Activity (HeLa [11]): 3.94%; Activity (HeLa [15]): 84.4%; Activity (HeLa [16]): 66.3%; Activity (HeLa [17]): Active; Activity (HeLa [18]): Not toxic; inhibition (HeLa [19]): inactive; Activity (HeLa [20]): Active; Activity (HeLa [21]): Dose-Dependent Effect; Activity (HeLa [22]): ~70%; viability at 4 µM (HeLa [23]): 91.8%; inhibition (HeLa [24]): Dose-Dependent Effect; inhibition (HeLa [25]): Dose-Dependent Effect
CCCCC/C=C/C(=O)O[C@@H]1C[C@H]2[C@@H](CCCC[C@H](O)CCC)CCC[C@H]2N[C@H]1C	Active	5.09	Active	5.23	5.23	5.06	45.3%	5.21	65%	Active	5.57	52.2%	5.41	5.21	10%	5%	Not toxic	5.10	4.73	5.10	Activity (HeLa [26]): 27.3%; Activity (HeLa [27]): 4.68%; Activity (HeLa [28]): 23.7%; Activity (HeLa [29]): 26.9%; Activity (HeLa [18]): Not toxic; inhibition (HeLa [19]): inactive; Activity (HeLa [20]): Active; Activity (HeLa [21]): Dose-Dependent Effect; Activity (HeLa [22]): ~50%; Activity (HeLa [30]): 3.62%; viability at 4 µM (HeLa [23]): 91.4%; inhibition (HeLa [24]): Dose-Dependent Effect; inhibition (HeLa [25]): Dose-Dependent Effect
